Data: patent US20100285959A1, “HERBICIDAL MIXTURES” (priority 2006, published 2010)
Where two headings read alike, the source gives them in different places.

What was measured:
oak species (QUESS) = test: Test 13 field trial, postemergence, brush weeds; format: in vivo, Quercus L. spp.; conditions: 56 DAA; g a.i./ha: Cpd 2 250; Fosamine-ammonium 6700
Text: (§1) Plots were established in non-crop land and were 6.1 m long by 3.0 m wide. […] Treatments were applied postemergence to the brush weeds using a backpack sprayer delivering a spray volume of 468 L/ha using a pressure of 241 kPa. […] All treatments also included a surfactant. […] Results are the means of the three replicates.

mixed hardwoods (MXDSP) = test: Test 13 field trial, postemergence, brush weeds; format: in vivo, Nyssa sylvatica, Acer rubrum, Liquidambar styraciflua; conditions: 56 DAA; g a.i./ha: Cpd 2 250; Fosamine-ammonium 6700
Text: as §1

wheat (TRZAW) = test system: wheat (TRZAW); set-up: species or system Triticum aestivum; conditions: in vivo
Description: (§2) A greenhouse test was conducted to evaluate the effects of Compounds 1 and 2, applied preemergence, on the plant species corn (ZEAMD, Zea mays ssp. indentata) and wheat (TRZAW, Triticum aestivum L.) grown from seed treated with and without naphthalic anhydride. Naphthalic anhydride was applied at a rate of 1% wt/wt basis to corn and wheat seed. Seed treatments were made as follows for evaluations of the chemical materials employed. One-hundred grams of each crop seed were placed in a separate self-closing plastic bag to which 1 gram of the chemical material was added. The bag containing the seed was tightly closed and gently agitated thereby allowing the seed to slowly come in contact with the chemical material to achieve maximal distribution on the seed surface, arriving at a uniform coverage. Treatment rate comparisons between spray application and seed treatment materials were made on the calculated area rate of naphthalic anhydride in grams active ingredient per hectare for a given crop. These rates were calculated based on a typical seeding rate per hectare used for agronomic production of a given crop. For wheat, a typical average seeding rate is 200 wheat seeds per square meter which weigh 6.8 g. For corn, a typical average seeding rate is 7.5 corn seeds per square meter which weigh 2.0 g. […] Corn treatments were replicated three times. Wheat treatments were replicated two times. […]

corn (ZEAMD) [1] = test system: corn (ZEAMD); set-up: species or system Zea mays ssp. indentata; conditions: in vivo
Description: as §2

common chickweed (STEME) [2] = test: Test 3 field trial, emerged weeds before corn planting; format: in vivo, Stellaria media; conditions: Cpd 2 100, glyphosate 1540, paraquat 1150 g a.i./ha, alone or combined
Text: (§3) Corn seeds (hybrid ‘Pioneer 33J56’) were planted in early spring season, 3.8 cm deep in a silt loam soil having 2.4% organic matter and a pH of 6. Plots were 6.1 m long by 2.7 m wide with rows spaced 91.4 cm apart. The field was managed using no-till practices. […] Compound 2 and paraquat treatments, alone and in combination, also included a surfactant. Glyphosate, alone and with Compound 2, included ammonium sulfate in the treatment mixture. […] The effects on the weeds in the treated plots and untreated control plots were recorded 30, 42, 46 and 68 days after application. Most of the weed species could not be evaluated at every timing. Corn response was not evaluated because the growth was highly variable depending on the efficacy of the weed control treatments. […] Results are the means of the three replicates.

giant ragweed (AMBTR) = test: Test 9 field trial, emerged weeds before corn planting; format: in vivo, Ambrosia trifida; conditions: g a.i./ha: Cpd 2 100, Glyphosate 1540, Paraquat 1150
Description: (§4) Corn seeds (hybrid ‘Pioneer 34M91 RR’) were planted in mid spring season, about 3.8 cm deep in a silty clay loam soil having a pH of 6.7. Plots were 9.1 m long by 3.0 m. The field was managed using no-till practices. […] Compound 2 and paraquat treatments, alone and in combination, also included a surfactant. Glyphosate, alone and with Compound 2, included ammonium sulfate in the treatment mixture. […] The effects on the weeds in the treated plots and untreated control plots were recorded 7, 14, 23, 30 and 57 days after application. Most of the weed species could not be evaluated at every timing. Corn response was only evaluated 57 days after application. […] Results are the means of the three replicates.

common dandelion (TAROF) = test: as above; format: in vivo, Taraxacum officinale; conditions: g a.i./ha: Cpd 2 100, Glyphosate 1540, Paraquat 1150
Description: as §4

bushy wallflower (ERYRE) = test: as above; format: in vivo, Erysimum repandum; conditions: g a.i./ha: Cpd 2 100, Glyphosate 1540, Paraquat 1150
Description: as §4

[3] = test system: Virginia pepperweed (LEPVI); test: Test 3 field trial, emerged weeds before corn planting; format: in vivo, Lepidium virginicum; conditions: Cpd 2 100, glyphosate 1540, paraquat 1150 g a.i./ha, alone or combined
Text: as §3

giant foxtail (SETFA) = test: as above; format: in vivo, Setaria faberi; conditions: 68 DAA; Cpd 2 100, glyphosate 1540, paraquat 1150 g a.i./ha, alone or combined
Text: as §3

prickly lettuce (LACSE) = test: Test 9 field trial, emerged weeds before corn planting; format: in vivo, Lactuca serriola; conditions: g a.i./ha: Cpd 2 100, Glyphosate 1540, Paraquat 1150
Description: as §4

Canada horseweed (ERICA) = test: as above; format: in vivo, Erigeron canadensis; conditions: g a.i./ha: Cpd 2 100, Glyphosate 1540, Paraquat 1150
Description: as §4

[4] = test system: henbit deadnettle (LAMAM); test: as above; format: in vivo, Lamium amplexicaule; conditions: g a.i./ha: Cpd 2 100, Glyphosate 1540, Paraquat 1150
Description: as §4

red deadnettle (LAMPU) [5] = test: as above; format: in vivo, Lamium purpureum; conditions: g a.i./ha: Cpd 2 100, Glyphosate 1540, Paraquat 1150
Description: as §4

shepherd's purse (CAPBP) = test: as above; format: in vivo, Capsella bursa-pastoris; conditions: g a.i./ha: Cpd 2 100, Glyphosate 1540, Paraquat 1150
Description: as §4

common chickweed (STEME) [6] = test: as above; format: in vivo, Stellaria media; conditions: g a.i./ha: Cpd 2 100, Glyphosate 1540, Paraquat 1150
Description: as §4

curly dock (RUMCR) = test: Test 3 field trial, emerged weeds before corn planting; format: in vivo, Rumex crispus; conditions: Cpd 2 100, glyphosate 1540, paraquat 1150 g a.i./ha, alone or combined
Text: as §3

red deadnettle (LAMPU) [7] = test: as above; format: in vivo, Lamium purpureum; conditions: Cpd 2 100, glyphosate 1540, paraquat 1150 g a.i./ha, alone or combined
Text: as §3

[8] = test system: common lambsquarters (CHEAL); test: as above; format: in vivo, Chenopodium album; conditions: 68 DAA; Cpd 2 100, glyphosate 1540, paraquat 1150 g a.i./ha, alone or combined
Text: as §3

corn (ZEAMD) [9] = test: Test 9 field trial, emerged weeds before corn planting; format: in vivo, Zea mays ssp. indentata; conditions: 57 DAA; g a.i./ha: Cpd 2 100, Glyphosate 1540, Paraquat 1150
Description: as §4

[10] = test system: smallflower buttercup (RANAB); test: as above; format: in vivo, Ranunculus abortivus; conditions: g a.i./ha: Cpd 2 100, Glyphosate 1540, Paraquat 1150
Description: as §4

[11] = test system: common lambsquarters (CHEAL); test: as above; format: in vivo, Chenopodium album; conditions: 57 DAA; g a.i./ha: Cpd 2 100, Glyphosate 1540, Paraquat 1150
Description: as §4

CCOP(=O)(O)C(N)=O [Fosamine-ammonium, fosamine-ammonium, reference compound]
QUESS Obs (oak species (QUESS)): 33 | MXDSP Obs (mixed hardwoods (MXDSP)): 47

O=C1OC(=O)c2cccc3cccc1c23 [Naphthalic anhydride]
TRZAW Obs (wheat (TRZAW)): 0 | ZEAMD Obs (corn (ZEAMD) [1]): 0

C[n+]1ccc(-c2cc[n+](C)cc2)cc1 [Paraquat]
STEME Obs (common chickweed (STEME) [2]; 30 DAA): 96% | STEME Obs (common chickweed (STEME) [2]; 42 DAA): 97% | STEME Obs (common chickweed (STEME) [2]; 46 DAA): 88% | AMBTR Obs (giant ragweed (AMBTR); 7 DAA): 100% | AMBTR Obs (giant ragweed (AMBTR); 14 DAA): 100% | AMBTR Obs (giant ragweed (AMBTR); 57 DAA): 70% | TAROF Obs (common dandelion (TAROF); 7 DAA): 79% | TAROF Obs (common dandelion (TAROF); 14 DAA): 69% | TAROF Obs (common dandelion (TAROF); 23 DAA): 61% | TAROF Obs (common dandelion (TAROF); 30 DAA): 33% | TAROF Obs (common dandelion (TAROF); 57 DAA): 0% | ERYRE Obs (bushy wallflower (ERYRE); 7 DAA): 98% | ERYRE Obs (bushy wallflower (ERYRE); 14 DAA): 94% | ERYRE Obs (bushy wallflower (ERYRE); 23 DAA): 98% | ERYRE Obs (bushy wallflower (ERYRE); 30 DAA): 100% | ERYRE Obs (bushy wallflower (ERYRE); 57 DAA): 80% | LEPVI Obs ([3]; 30 DAA): 100% | LEPVI Obs ([3]; 42 DAA): 96% | LEPVI Obs ([3]; 46 DAA): 100% | SETFA Obs (giant foxtail (SETFA)): 0% | LACSE Obs (prickly lettuce (LACSE); 7 DAA): 97% | LACSE Obs (prickly lettuce (LACSE); 14 DAA): 95% | LACSE Obs (prickly lettuce (LACSE); 23 DAA): 100% | LACSE Obs (prickly lettuce (LACSE); 30 DAA): 100% | LACSE Obs (prickly lettuce (LACSE); 57 DAA): 100% | ERICA Obs (Canada horseweed (ERICA); 7 DAA): 95% | ERICA Obs (Canada horseweed (ERICA); 14 DAA): 96% | ERICA Obs (Canada horseweed (ERICA); 23 DAA): 99% | ERICA Obs (Canada horseweed (ERICA); 30 DAA): 100% | ERICA Obs (Canada horseweed (ERICA); 57 DAA): 81% | LAMAM Obs ([4]; 7 DAA): 93% | LAMAM Obs ([4]; 14 DAA): 84% | LAMAM Obs ([4]; 23 DAA): 85% | LAMAM Obs ([4]; 30 DAA): 73% | LAMAM Obs ([4]; 57 DAA): 81% | LAMPU Obs (red deadnettle (LAMPU) [5]; 7 DAA): 79% | LAMPU Obs (red deadnettle (LAMPU) [5]; 14 DAA): 80% | LAMPU Obs (red deadnettle (LAMPU) [5]; 23 DAA): 81% | LAMPU Obs (red deadnettle (LAMPU) [5]; 30 DAA): 70% | CAPBP Obs (shepherd's purse (CAPBP); 7 DAA): 89% | CAPBP Obs (shepherd's purse (CAPBP); 14 DAA): 85% | CAPBP Obs (shepherd's purse (CAPBP); 23 DAA): 77% | CAPBP Obs (shepherd's purse (CAPBP); 30 DAA): 72% | CAPBP Obs (shepherd's purse (CAPBP); 57 DAA): 93% | STEME Obs (common chickweed (STEME) [6]; 7 DAA): 99% | STEME Obs (common chickweed (STEME) [6]; 14 DAA): 99% | STEME Obs (common chickweed (STEME) [6]; 23 DAA): 100% | STEME Obs (common chickweed (STEME) [6]; 30 DAA): 100% | STEME Obs (common chickweed (STEME) [6]; 57 DAA): 98% | RUMCR Obs (curly dock (RUMCR); 30 DAA): 58% | RUMCR Obs (curly dock (RUMCR); 42 DAA): 58% | RUMCR Obs (curly dock (RUMCR); 46 DAA): 13% | RUMCR Obs (curly dock (RUMCR); 68 DAA): 15% | LAMPU Obs (red deadnettle (LAMPU) [7]; 30 DAA): 100% | LAMPU Obs (red deadnettle (LAMPU) [7]; 42 DAA): 98% | LAMPU Obs (red deadnettle (LAMPU) [7]; 46 DAA): 100% | CHEAL Obs [8]: 0% | ZEAMD Obs (corn (ZEAMD) [9]): 0% | RANAB Obs ([10]; 7 DAA): 98% | RANAB Obs ([10]; 14 DAA): 100% | RANAB Obs ([10]; 23 DAA): 100% | RANAB Obs ([10]; 30 DAA): 100% | CHEAL Obs [11]: 0%
